From patent US9480727B2, “Synthetic peptide for inhibiting expression of type 2 TNF receptor and use thereof” (TOAGOSEI CO., LTD., priority 2012, dated 2016)

Experiments:
TNF-R1 [1] = assay: TNF-R1 expression (immunofluorescence, flow cytometry) in mouse Neuro 2a cells; format: cell-based; conditions: Neuro 2a cells after retinoic acid induction, 5 μM peptide, two days; fluorescence intensity relative to control = 1 (FIG. 1)
Description: The activities of the two peptides synthesized in Example 1 above were tested with cultured cells of a mouse spinal cord, neuroblastoma cell line (Neuro 2a). The control group was supplied with no peptides. The test details are described below.
The Neuro 2a cell line was seeded in a culture dish of 6 cm diameter at a density of 8.5×10^4 cells/mL and incubated overnight in a general DMEM culture medium (with 10% FBS, 1% penicillin) at 37° C. in a CO2 incubator at 5% CO2.
After incubated overnight, the culture medium was replaced with a DMEM culture medium containing 2% FBS, 20 μM retinoic acid and 1% penicillin. […]
(§1) After completion of the incubation, cultured cells in each test group were collected and divided into certain test tubes in fractions having the same number of cells. By the immunofluorescence technique described below, the expression (presence) of TNF-R1 and TNF-R2 was then assessed in each test group (group supplied with no peptide, group supplied with Sample 1, group supplied with Sample 2). […]
(§2) The fluorescence intensities of cells were measured with a flow cytometer (a Millipore system product, Guava® easyCyte 8HT). For both TNF-R2 and TNF-R1, the fluorescence intensities are shown as relative values with the fluorescence intensities of TNF-R2 and TNF-R1 in the control group (group supplied with no peptide) being 1, respectively.

TNF-R1 [2] = assay: TNF-R1 expression (immunofluorescence, flow cytometry) in human SK-N-SH cells; format: cell-based; conditions: SK-N-SH cells after retinoic acid induction, 5 μM peptide, two days; fluorescence intensity relative to control = 1 (FIG. 2)
Description: The activities of the two peptides synthesized in Example 1 above were tested with cultured cells of a human neuroblastoma cell line (SK-N-SH). The control group was supplied with no peptides. The test details are described below.
The SK-N-SH cell line was seeded in a 4 mL fraction in a culture dish of 6 cm diameter at a density of 1.5×10^5 cells/mL and incubated in a general DMEM culture medium (with 10% FBS, 2 mM L-glutamine, 50 unit/mL penicillin, and 50 μg/mL streptomycin) at 37° C. in a CO2 incubator at 5% CO2 over two nights. […]
as §1, with “same number of” for “same”
as §2

Sequence	presence (expression) of TNF-R1 as compared with the control group (TNF-R1 [1])	presence (expression) of TNF-R1 as compared with the control group (TNF-R1 [2])
MLPGLALLLLAAWTARA (listed as Homo sapiens) [Sample 1]	no significant change	no significant change
MLPSLALLLLAAWTVRA (listed as Mus musculus) [Sample 2]	no significant change	no significant change
